Measurements as given in patent US20250129135A1, “Multi-Agonist and Use Thereof” (priority 2021, published 2025).
Starred links: 1 amine or outer side, 2 acyl side, 3 side chain; linkers in the order of their positions; H or OH if unused. Non-standard residues stand in square brackets, D forms with d. Residues, ends and D or L forms follow the SMILES beside them. Groups on a side chain read outwards from the residue. *: point of attachment. C20 diacid = O=C(O)CCCCCCCCCCCCCCCCCCC(=O)*; αMePhe(2-F) = C[C@](N)(Cc1ccccc1F)C(=O)O; γGlu = O=C(O)[C@H](CCC(=O)[*:2])N[*:1]; αMeL = CC(C)C[C@](C)(N)C(=O)O; AEEA = NCCOCCOCC(=O)O; Aib = CC(C)(N)C(=O)O

Assays:
RIN-m5F cells = assay type: cell-based, rat; conditions: for Rel. A (Relative Activity) on RIN-m5F: relative to GLP-1(7-37)
Method in brief: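 cAMP production measured in RIN-m5F cells resuspended in HBSS; compounds incubated 60 min at room temperature, then detection reagent added for a further 60 min before read-out.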

[1] = test system: human primary liver cells; assay type: cell-based; conditions: for Rel. A (Relative Activity) on human primary liver cells: relative to GCG
Method in brief: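 Human primary hepatocytes, thawed at 37° C and resuspended in HBSS, exposed to compound for 60 min at room temperature. Detection reagent then added for 60 min before cAMP readout.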

Human GCG R = biological target: T1, Human GCG R (Homo sapiens, UniProt P47871); test: cAMP (HTRF) activity in HEK-293 cells stably overexpressing human GCG receptor; assay type: cell-based; conditions: EC50 of human GCG / EC50 of compound
T1 construct: expressed in transfected cells; host or cells: HEK-293
Method in brief: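 Agonism was assessed from intracellular cAMP by HTRF. Cells resuspended in HBSS were treated with compound for 60 minutes at room temperature, then with detection reagent for a further 60 minutes. EC50 (nM) values came from concentration–response curves.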

T1 sequence (P47871 26-477): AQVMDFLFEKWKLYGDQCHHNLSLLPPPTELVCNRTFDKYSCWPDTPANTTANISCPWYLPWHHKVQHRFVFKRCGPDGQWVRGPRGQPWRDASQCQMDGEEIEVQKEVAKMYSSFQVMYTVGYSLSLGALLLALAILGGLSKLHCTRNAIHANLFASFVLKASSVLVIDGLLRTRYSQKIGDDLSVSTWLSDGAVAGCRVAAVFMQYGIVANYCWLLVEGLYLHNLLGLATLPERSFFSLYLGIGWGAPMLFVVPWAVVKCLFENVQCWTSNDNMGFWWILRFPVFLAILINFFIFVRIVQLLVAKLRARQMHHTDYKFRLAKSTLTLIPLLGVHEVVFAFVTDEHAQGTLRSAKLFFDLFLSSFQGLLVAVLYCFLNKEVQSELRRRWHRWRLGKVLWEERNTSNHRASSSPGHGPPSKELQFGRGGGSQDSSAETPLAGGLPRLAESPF

Human GCG R Rel. A (Relative Activity) (Human GCG R) [%] | SMILES | EC50 (RIN-m5F cells) [nM] | Rel. A (Relative Activity) on RIN-m5F (RIN-m5F cells) [%] | EC50 [1] [nM] | Rel. A (Relative Activity) on human primary liver cells [1] [%]
 | CC[C@H](C)[C@H](NC(=O)[C@H](Cc1ccccc1)NC(=O)[C@H](C)NC(=O)C(C)(C)NC(=O)[C@H](CCC(N)=O)NC(=O)[C@H](C)NC(=O)[C@H](CCCCNC(=O)COCCOCCNC(=O)COCCOCCNC(=O)CC[C@H](NC(=O)CCCCCCCCCCCCCCCCCCC(=O)O)C(=O)O)NC(=O)[C@H](CCCCN)NC(=O)[C@H](CC(=O)O)NC(=O)[C@H](CC(C)C)NC(=O)[C@H](Cc1ccccc1)NC(=O)[C@@H](NC(=O)[C@H](CO)NC(=O)[C@H](Cc1ccc(O)cc1)NC(=O)[C@H](CC(=O)O)NC(=O)[C@H](CO)NC(=O)[C@@H](NC(=O)[C@](C)(Cc1ccccc1F)NC(=O)[C@@H](NC(=O)CNC(=O)[C@H](CCC(N)=O)NC(=O)C(C)(C)NC(=O)[C@@H](N)Cc1ccc(O)cc1)[C@@H](C)O)[C@@H](C)O)[C@@H](C)CC)C(=O)N[C@@H](CCC(=O)O)C(=O)N[C@@H](Cc1ccc(O)cc1)C(=O)N[C@@H](CC(C)C)C(=O)N[C@@H](CC(C)C)C(=O)N[C@@H](CCC(=O)O)C(=O)NC(C)(C)C(=O)N[C@@H](Cc1c[nH]cn1)C(=O)N1CCC[C@H]1C(=O)N[C@@H](CO)C(=O)N[C@@H](CO)C(=O)NCC(=O)N[C@@H](C)C(=O)N1CCC[C@H]1C(=O)N1CCC[C@H]1C(=O)N1CCC[C@H]1C(=O)N[C@@H](CO)C(N)=O [Compound 18] | 0.214 | 482.24 | 0.622 | 625.56
83.82 | CC[C@H](C)[C@H](NC(=O)[C@H](Cc1ccccc1)NC(=O)[C@H](C)NC(=O)C(C)(C)NC(=O)[C@H](CCC(N)=O)NC(=O)[C@H](C)NC(=O)[C@H](CCCCNC(=O)COCCOCCNC(=O)COCCOCCNC(=O)CC[C@H](NC(=O)CCCCCCCCCCCCCCCCCCC(=O)O)C(=O)O)NC(=O)[C@H](CCCCN)NC(=O)[C@H](CC(=O)O)NC(=O)[C@H](CC(C)C)NC(=O)[C@](C)(CC(C)C)NC(=O)[C@@H](NC(=O)[C@H](CO)NC(=O)[C@H](Cc1ccc(O)cc1)NC(=O)[C@H](CC(=O)O)NC(=O)[C@H](CO)NC(=O)[C@@H](NC(=O)[C@](C)(Cc1ccccc1F)NC(=O)[C@@H](NC(=O)CNC(=O)[C@H](CCC(N)=O)NC(=O)C(C)(C)NC(=O)[C@@H](N)Cc1ccc(O)cc1)[C@@H](C)O)[C@@H](C)O)[C@@H](C)CC)C(=O)N[C@@H](CCC(=O)O)C(=O)N[C@@H](Cc1ccccc1)C(=O)N[C@@H](CC(C)C)C(=O)N[C@@H](CC(C)C)C(=O)N[C@@H](CCC(=O)O)C(=O)N[C@H](C(=O)NCC(=O)N1CCC[C@H]1C(=O)N[C@@H](CO)C(=O)N[C@@H](CO)C(=O)NC(C)(C)C(=O)N[C@@H](Cc1c[nH]cn1)C(=O)N1CCC[C@H]1C(=O)N1CCC[C@H]1C(=O)N1CCC[C@H]1C(=O)N[C@@H](CO)C(N)=O)[C@@H](C)O [Compound 38] (H-Y[Aib]QGT[αMePhe(2-F)]TSDYSI[αMeL]LDKK([AEEA-AEEA-γGlu-C20 diacid])AQ[Aib]AFIEFLLETGPSS[Aib]HPPPS-NH2; N-terminus assumed) | 0.173 | 596.53 | 0.899 | 432.81
